Assay [1] concerns the target voltage-gated sodium channel (sheep brain synaptoneurosomes; isoform not stated). Briefly: inhibition of [3H]-BTX-B radioligand binding at […] C. Further details: species or system Ovis aries.
Assay [2] concerns voltage-gated sodium channel (GH3 cells; isoform not stated). Briefly: whole-cell voltage clamp, block of peak INa. In kind it is cell-based.

As to `CCCCN(CCCC)CCNC(=O)c1ccc(N=[N+]=[N-])cc1` [DNB-AB, N-(2-di-N-butyl-aminoethyl)-4-azidobenzamide], the half-inhibitory concentration (IC50) amounted to 3.3 µM in assay [1] and 27 µM in assay [2].

In general, IC50 refers to the midpoint of a concentration-inhibition curve. A higher IC50 goes with lower potency.

The values above are taken from paper PMC2216936 (The Journal of General Physiology, 1995).
